Measured values as given in the supplement of paper PMC10307832.

Tests used:
Test in all cases: relative viability (nuclei count vs DMSO), 5 days (fraction); higher = more cells survive
[1] = compound: CN1CCC(CNc2ccc3ncc(-c4cccc(OC(F)(F)F)c4)n3n2)CC1 [SGI-1776] + Nc1nc2[nH]cc(CCc3ccc(C(=O)N[C@@H](CCC(=O)O)C(=O)O)cc3)c2c(=O)[nH]1 [Pemetrexed] (partner 0.2 µM)
Method in brief: (§1)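 Each reported value is a median over duplicate plates. It expresses relative viability: treated-well nuclei count divided by vehicle-well nuclei count. Lung cancer cell lines in 1536-well plates were dosed by pin tool a day after seeding, alone with one drug or with a fixed anchor-drug dose plus five library-drug doses (not always all listed) in √10 steps, and nuclei were counted after 5 days.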

[2] = compound: C1COCCN1C2=NC(=NC3=C2OC4=C3C=CC=N4)C5=CC(=CC=C5)NC(=O)C6=CN=C(C=C6)N + C[C@]1(O)C[C@@H](c2nc(-c3ccc4ccc(-c5ccccc5)nc4c3)c3c(N)nccn32)C1 [Linsitinib] (partner 1 µM)
Method in brief: as §1

[3] = compound: C1COCCN1C2=NC(=NC3=C2OC4=C3C=CC=N4)C5=CC(=CC=C5)NC(=O)C6=CN=C(C=C6)N + CC(C)C[C@H](NC(=O)[C@H](Cc1ccccc1)NC(=O)c1cnccn1)B(O)O [Bortezomib] (partner 0.002 µM)
Method in brief: as §1

[4] = compound: Nc1ccccc1NC(=O)c1ccc(CNC(=O)OCc2cccnc2)cc1 [Entinostat] + COc1cccc2cc(-c3nc([C@H]4CC[C@H](C(=O)O)CC4)n4ncnc(N)c34)[nH]c12 [OSI-027] (partner 0.5 µM)
Method in brief: as §1

Cell Line | relative viability ([1]; first compound 0.08 µM) | relative viability ([1]; first compound 0.8 µM) | relative viability ([1]; first compound 2.53 µM) | relative viability ([1]; first compound 8 µM) | relative viability ([2]; first compound 0.02 µM) | relative viability ([2]; first compound 0.06325 µM) | relative viability ([2]; first compound 0.2 µM) | relative viability ([2]; first compound 0.6325 µM) | relative viability ([2]; first compound 2 µM) | relative viability ([3]; first compound 0.02 µM) | relative viability ([3]; first compound 0.06325 µM) | relative viability ([3]; first compound 0.2 µM) | relative viability ([3]; first compound 0.6325 µM) | relative viability ([3]; first compound 2 µM) | relative viability ([4]; first compound 0.02 µM) | relative viability ([4]; first compound 0.06325 µM) | relative viability ([4]; first compound 0.2 µM) | relative viability ([4]; first compound 0.6325 µM) | relative viability ([4]; first compound 2 µM)
NCI-H2126 | 0.736 | 0.693 | 0.693 | 0.624 | 0.73 | 0.79 | 0.68 | 0.581 | 0.601 | 1.07 | 1.18 | 1.1 | 1.03 | 0.879 | 0.725 | 0.699 | 0.712 | 0.402 | 0.308
NCI-H2228 | 0.369 | 0.392 | 0.332 | 0.33 | 0.588 | 0.481 | 0.737 | 0.728 | 0.524 | 1.25 | 1.1 | 0.975 | 0.84 | 0.488 | 0.695 | 0.595 | 0.416 | 0.266 | 0.208
NCI-H2347 | 0.471 | 0.419 | 0.469 | 0.338 | 0.917 | 0.966 | 0.979 | 0.98 | 0.877 | 1.2 | 0.922 | 1.01 | 0.784 | 0.73 | 0.292 | 0.284 | 0.175 | 0.217 | 0.153
NCI-H2405 | 1.13 | 1.1 | 0.949 | 0.857 | 0.828 | 0.946 | 0.97 | 0.905 | 0.795 | 0.995 | 1.02 | 0.973 | 0.947 | 0.902 | 0.574 | 0.652 | 0.582 | 0.567 | 0.414
NCI-H3122 | 0.202 | 0.201 | 0.198 | 0.193 | 0.93 | 1.11 | 0.976 | 0.988 | 0.821 | 0.985 | 1.01 | 1.03 | 1.05 | 0.931 | 1.01 | 1.08 | 0.998 | 0.823 | 0.191
PC-3 [JPC-3] | 1.17 | 1.42 | 0.936 | 0.495 | 0.994 | 0.969 | 0.969 | 0.918 | 0.908 | 0.799 | 0.748 | 0.844 | 0.845 | 0.634 | 0.761 | 0.745 | 0.57 | 0.432 | 0.306
PC-14 | 0.14 | 0.13 | 0.117 | 0.101 | 0.991 | 0.999 | 0.953 | 0.86 | 0.502 | 0.877 | 1.04 | 0.835 | 0.822 | 0.375 | 0.814 | 0.829 | 0.779 | 0.235 | 0.0869
RERF-LC-KJ | 0.46 | 0.477 | 0.461 | 0.412 | 0.958 | 0.961 | 0.898 | 0.863 | 0.63 | 1.04 | 1.21 | 1.04 | 1.05 | 0.798 | 0.582 | 0.591 | 0.6 | 0.326 | 0.264
SK-LU-1 | 1.02 | 0.932 | 1.1 | 0.781 | 1.23 | 1.13 | 1.02 | 1.18 | 0.574 | 1.31 | 0.998 | 1.02 | 1.14 | 0.63 | 0.357 | 0.448 | 0.35 | 0.261 | 0.231
SW 1573 | 0.896 | 0.799 | 0.77 | 0.671 | 0.75 | 0.743 | 0.824 | 0.756 | 0.544 | 1.16 | 0.904 | 1.01 | 0.888 | 0.474 | 0.639 | 0.832 | 0.617 | 0.598 | 0.54
